The values that follow come from patent US4468394A, “Cephalosporin compounds” (Eisai Co., Ltd., priority 1981, dated 1984).

Molecules are shown by their SMILES. Converted amounts (≈) assume the structure as drawn. Where a name gives a salt, the structure may show the parent alone. Bounds are passed on as bounds.

Series [1] deals with Pseud. aeruginosa EP-067. Briefly: Antibacterial activity (MIC), Pseud. aeruginosa EP-067. Format: cell-based. To be noted: Pseudomonas aeruginosa. An excerpt: (§1) Tables 1 and 2 show the antibacterial activity (MIC, μg/mL) of the compounds of this invention.
The test system of series [2] is Pseud. aeruginosa EP-069. Briefly: Antibacterial activity (MIC), Pseud. aeruginosa EP-069. Format: cell-based. The following applies: Pseudomonas aeruginosa.
Excerpt: as §1

In series [3] the test system is Pseud. aeruginosa EP-071. Briefly: Antibacterial activity (MIC), Pseud. aeruginosa EP-071. Format: cell-based. The following applies: Pseudomonas aeruginosa.
Excerpt: as §1

Series [4] has as its system Kleb. pneumoniae EK-6. Briefly: Antibacterial activity (MIC), Kleb. pneumoniae EK-6. Format: cell-based. To be noted: Klebsiella pneumoniae.
Excerpt: as §1

Series [5] can be described thus: Acute toxicity LD50 (mouse, oral). The following applies: in vivo. An excerpt: The acute toxicity values [LD50 (mouse, oral)] of the compounds of this invention are higher than 4 g/kg in the case of 7β-[D-2-(6,7-dihydroxy-4-oxo-4H-1-benzothiopyran-3-carboxamide)-2-(4- hydroxyphenyl)acetamide]-3-(1-carboxymethyl-5-tetrazolyl)thiomethyl-3-cephem-4-carboxylic acid and 7β-[D-2-(6,7-diacetoxy-1-ethyl-1,4-dihydro-4-oxoquinoline-3-carboxamide)-2-(4-hydroxyphenyl)acetamide]-3-(1-carboxymethyl-5-tetrazolyl)thiomethyl-3-cephem-4-carboxylic acid, as well as 7β-[D-2-(6,7-dihydroxy-2-oxo-2H-1-benzopyran-3-carboxamide)-2-(4-hydroxyphenyl)acetamide]-3-(1-carboxymethyl-5-tetrazolyl)thiomethyl-3-cephem-4-carboxylic acid and 7β-[D-2-(6,7-dihydroxy-2-oxo-2H-1-benzothiopyran-3-carboxamide)-2-(4- hydroxyphenyl)acetamide]-3-(1-carboxymethyl-5-tetrazolyl)thiomethyl-3-cephem-4-carboxylic acid.

Series [6] concerns Pseud. aeruginosa. To be noted: in words; cited from earlier work.
Series [7] relates to Kleb. pneumoniae. The following applies: in words; cited from earlier work.

As for `CCn1cc(C(=O)N[C@@H](C(=O)N[C@@H]2C(=O)N3C(C(=O)O)=C(CSc4nnc(C)s4)CS[C@H]23)c2ccc(O)cc2)c(=O)c2cc(O)c(O)cc21` [Example 6, 7β-[D-2-(6,7-Dihydroxy-1-ethyl-1,4-dihydro-4-oxoquinoline-3-carboxamide)-2-(4-hydroxyphenyl)acetamide]-3-[5-methyl-2-(1,3,4-thiadiazolyl)]thiomethyl-3-cephem-4-carboxylic acid], the MIC in series [1] (EP067, Table 1) stood at 3.13 µg/mL (≈ 4.32 µM); in series [2] (EP069, Table 1), 3.13 µg/mL (≈ 4.32 µM); in series [3] (EP071, Table 1), 0.2 µg/mL (≈ 0.276 µM); in series [4] (EK6, Table 1) it was 0.05 µg/mL (≈ 0.069 µM).
`O=C(O)Cn1nnnc1SCC1=C(C(=O)O)N2C(=O)[C@@H](NC(=O)[C@H](NC(=O)c3cc4cc(O)c(O)cc4oc3=O)c3ccc(O)cc3)[C@H]2SC1` [Example 21, 7β-[D-2-(6,7-Dihydroxy-2-oxo-2H-1-benzopyran-3-carboxamide)-2-(4-hydroxyphenyl)acetamide]-3-(1-carboxymethyl-5-tetrazolyl)thiomethyl-3-cephem-4-carboxylic acid] gave an LD50 in series [5] of more than 4000 mg/kg.
`CC(=O)OCC1=C(C(=O)O)N2C(=O)[C@@H](NC(=O)[C@H](NC(=O)c3cc4ccc(O)c(O)c4oc3=O)c3ccc(O)cc3)[C@H]2SC1` [Example 25, 7β-[D-2-(7,8-Dihydroxy-2-oxo-2H-1-benzopyran-3-carboxamide)-2-(4-hydroxyphenyl)acetamide]-3-acetoxymethyl-3-cephem-4-carboxylic acid]: the MIC in series [1] (EP067, Table 2) amounted to 0.8 µg/mL (≈ 1.28 µM); in series [2] (EP069, Table 2), 1.56 µg/mL (≈ 2.49 µM); in series [3] (EP071, Table 2) it was 0.1 µg/mL (≈ 0.16 µM); in series [4] (EK6, Table 2) it was 0.1 µg/mL (≈ 0.16 µM).
For the compound `CC(=O)OCC1=C(C(=O)O)N2C(=O)[C@@H](NC(=O)[C@H](NC(=O)c3cc4cc(OC(C)=O)c(OC(C)=O)cc4n(C)c3=O)c3ccc(O)cc3)[C@H]2SC1` [Example 35, 7β-[D-2-(6,7-Diacetoxy-1-methyl-1,2-dihydro-2-oxoquinoline-3-carboxamide)-2-(4-hydroxyphenyl)acetamide]-3-acetoxymethyl-3-cephem-4-carboxylic acid], the MIC in series [1] (EP067, Table 2) was found to be 3.13 µg/mL (≈ 4.33 µM); in series [2] (EP069, Table 2), 1.56 µg/mL (≈ 2.16 µM); in series [3] (EP071, Table 2) it was 0.2 µg/mL (≈ 0.277 µM); in series [4] (EK6, Table 2) it was 0.8 µg/mL (≈ 1.11 µM).
On to `CCn1cc(C(=O)N[C@@H](C(=O)N[C@@H]2C(=O)N3[C@@H]2SC(C)(C)[C@@H]3C(=O)O)c2ccccc2)c(=O)c2cc(OC(C)=O)c(OC(C)=O)cc21` [Example 2, 6β-[D-2-(6,7-Diacetoxy-1-ethyl-1,4-dihydro-4-oxoquinoline-3-carboxamide)-2-phenylacetamide]penicillanic acid], for which the MIC in series [1] (EP067, Table 1) was 1.56 µg/mL (≈ 2.35 µM); in series [2] (EP069, Table 1), 3.13 µg/mL (≈ 4.71 µM); in series [3] (EP071, Table 1) it was 0.1 µg/mL (≈ 0.15 µM); in series [4] (EK6, Table 1), 0.2 µg/mL (≈ 0.301 µM).
As to `O=C(O)Cn1nnnc1SCC1=C(C(=O)O)N2C(=O)[C@@H](NC(=O)[C@H](NC(=O)c3cc4ccc(O)c(O)c4oc3=O)c3ccc(O)cc3)[C@H]2SC1` [Example 27, 7β-[D-(7,8-Dihydroxy-2-oxo-2H-1-benzopyran-3-carboxamide)-2-(4-hydroxyphenyl)acetamide]-3-(1-carboxymethyl-5-tetrazolyl)thiomethyl-3-cephem-4-carboxylic acid], the MIC was 1.56 µg/mL (≈ 2.15 µM) in series [1] (EP067, Table 2); 1.56 µg/mL (≈ 2.15 µM) in series [2] (EP069, Table 2); 0.1 µg/mL (≈ 0.138 µM) in series [3] (EP071, Table 2); not above 0.012 µg/mL in series [4] (EK6, Table 2).
Regarding `Cn1nnnc1SCC1=C(C(=O)O)N2C(=O)[C@@H](NC(=O)[C@H](NC(=O)c3cc4cc(O)c(O)cc4oc3=O)c3ccc(O)cc3)[C@H]2SC1` [Example 20, 7β-[D-2-(6,7-Dihydroxy-2-oxo-2H-1-benzopyran-3-carboxamide)-2-(4-hydroxyphenyl)acetamide]-3-(1-methyl-5-tetrazolyl)thiomethyl-3-cephem-4-carboxylic acid], the MIC in series [1] (EP067, Table 2) came to 0.8 µg/mL (≈ 1.17 µM); in series [2] (EP069, Table 2), 0.8 µg/mL (≈ 1.17 µM); in series [3] (EP071, Table 2), 0.2 µg/mL (≈ 0.293 µM); in series [4] (EK6, Table 2) it was 0.2 µg/mL (≈ 0.293 µM).
Compound `CCn1cc(C(=O)N[C@@H](C(=O)N[C@@H]2C(=O)N3C(C(=O)O)=C(CSc4nnnn4CC(=O)O)CS[C@H]23)c2ccc(O)cc2)c(=O)c2cc(OC(C)=O)c(OC(C)=O)cc21` [Example 5, 7β-[D-2-(6,7-Diacetoxy-1-ethyl-1,4-dihydro-4-oxoquinoline-3-carboxamide)-2-(4-hydroxyphenyl)acetamide]-3-(1-carboxymethyl-5-tetrazolyl)thiomethyl-3-cephem-4-carboxylic acid] gave an LD50 in series [5] of more than 4000 mg/kg. The MIC is 3.13 µg/mL (≈ 3.74 µM) in series [1] (EP067, Table 1); 3.13 µg/mL (≈ 3.74 µM) in series [2] (EP069, Table 1); 0.2 µg/mL (≈ 0.239 µM) in series [3] (EP071, Table 1); 0.024 µg/mL (≈ 0.0287 µM) in series [4] (EK6, Table 1).
`Cc1nnc(SCC2=C(C(=O)O)N3C(=O)[C@@H](NC(=O)[C@H](NC(=O)c4cc5cc(O)c(O)cc5[nH]c4=O)c4ccc(O)cc4)[C@H]3SC2)s1` [Example 34, 7β-[D-2-(6,7-Dihydroxy-1,2-dihydro-2-oxoquinoline-3-carboxamide)-2-(4-hydroxyphenyl)acetamide]-3-[5-methyl-2-(1,3,4-thiadiazolyl)]thiomethyl-3-cephem-4-carboxylic acid]: the MIC worked out at 3.13 µg/mL (≈ 4.49 µM) in series [1] (EP067, Table 2); 3.13 µg/mL (≈ 4.49 µM) in series [2] (EP069, Table 2); 0.4 µg/mL (≈ 0.574 µM) in series [3] (EP071, Table 2); 0.4 µg/mL (≈ 0.574 µM) in series [4] (EK6, Table 2).
On to `CO[C@@]1(NC(=O)[C@H](NC(=O)c2csc3cc(OC(C)=O)c(OC(C)=O)cc3c2=O)c2ccc(O)cc2)C(=O)N2C(C(=O)O)=C(COC(C)=O)CS[C@@H]21` [Example 11, 7β-[D-2-(6,7-Diacetoxy-4-oxo-4H-1-benzothiopyran-3-carboxamide)-2-(4-hydroxyphenyl)acetamide]-7α-methoxy-3-acetoxymethyl-3-cephem-4-carboxylic acid], for which the MIC in series [1] (EP067, Table 1) turned out to be 3.13 µg/mL (≈ 4.14 µM); in series [2] (EP069, Table 1), 3.13 µg/mL (≈ 4.14 µM); in series [3] (EP071, Table 1) it was 0.2 µg/mL (≈ 0.265 µM); in series [4] (EK6, Table 1) it was 0.024 µg/mL (≈ 0.0318 µM).
Take `CC(=O)Oc1cc2cc(C(=O)N[C@@H](C(=O)N[C@@H]3C(=O)N4[C@@H]3SC(C)(C)[C@@H]4C(=O)O)c3ccccc3)c(=O)sc2cc1OC(C)=O` [Example 28, 6β-[D-2-(6,7-Diacetoxy-2-oxo-2H-1-benzothiopyran-3-carboxamide)-2-phenylacetamide]penicillanic acid]: the MIC is 1.56 µg/mL (≈ 2.39 µM) in series [1] (EP067, Table 2); 3.13 µg/mL (≈ 4.79 µM) in series [2] (EP069, Table 2); 0.1 µg/mL (≈ 0.153 µM) in series [3] (EP071, Table 2); 0.1 µg/mL (≈ 0.153 µM) in series [4] (EK6, Table 2).
With `CCn1cc(C(=O)N[C@@H](C(=O)N[C@@H]2C(=O)N3C(C(=O)O)=C(CSc4nnc(C)s4)CS[C@H]23)c2ccc(O)cc2)c(=O)c2cc(OC(C)=O)c(O)cc21` [Example 12, 7β-[D-2-(6-Acetoxy-7-hydroxy-1-ethyl-1,4-dihydro-4-oxoquinoline-3-carboxamide)-2-(4-hydroxyphenyl)acetamide]-3-[5-methyl-2-(1,3,4-thiadiazolyl)]thiomethyl-3-cephem-4-carboxylic acid sodium salt], the MIC is 3.13 µg/mL in series [1] (EP067, Table 1); 3.13 µg/mL in series [2] (EP069, Table 1); 0.2 µg/mL in series [3] (EP071, Table 1); 0.024 µg/mL in series [4] (EK6, Table 1).
`O=C(O)Cn1nnnc1SCC1=C(C(=O)O)N2C(=O)[C@@H](NC(=O)[C@H](NC(=O)c3cc4cc(O)c(O)cc4sc3=O)c3ccc(O)cc3)[C@H]2SC1` [Example 30]: the LD50 in series [5] was more than 4000 mg/kg.
In the case of `CC1(C)S[C@@H]2[C@H](NC(=O)[C@H](NC(=O)c3cc4ccccc4oc3=O)c3ccccc3)C(=O)N2[C@H]1C(=O)O` [D(-)-α-(coumarin-3-carboxamide)benzylpenicillin, reference compound], the “antibacterial activity according to the known literature” value in series [6] and in series [7] was “highest in antibacterial activity” in each case. Moreover, the MIC in series [1] (EP067, Table 2) amounted to 12.5 µg/mL (≈ 24 µM); in series [2] (EP069, Table 2), 12.5 µg/mL (≈ 24 µM); in series [3] (EP071, Table 2), 1.56 µg/mL (≈ 2.99 µM); in series [4] (EK6, Table 2), 12.5 µg/mL (≈ 24 µM).
Turning to `CC(=O)Oc1cc2cc(C(=O)N[C@@H](C(=O)N[C@@H]3C(=O)N4[C@@H]3SC(C)(C)[C@@H]4C(=O)O)c3ccccc3)c(=O)oc2cc1OC(C)=O` [Example 14, 6β-[D-2-(6,7-Diacetoxy-2-oxo-2H-1-benzopyran-3-carboxamide)-2-phenylacetamide]penicillanic acid], the MIC is 1.56 µg/mL (≈ 2.45 µM) in series [1] (EP067, Table 2); 1.56 µg/mL (≈ 2.45 µM) in series [2] (EP069, Table 2); 0.2 µg/mL (≈ 0.314 µM) in series [3] (EP071, Table 2); 0.2 µg/mL (≈ 0.314 µM) in series [4] (EK6, Table 2).
Regarding `CC1(C)S[C@@H]2[C@H](NC(=O)[C@H](NC(=O)c3cnc4cccnc4c3O)c3ccccc3)C(=O)N2[C@H]1C(=O)O` [D(-)-α-(4-hydroxy-1,5-naphthyridine-3-carboxamide)benzylpenicillin, reference compound], in series [6], the “antibacterial activity according to the known literature” value is on record as “highest antibacterial activity”. Moreover, the MIC came out at 12.5 µg/mL (≈ 24 µM) in series [1] (EP067, Table 1); 12.5 µg/mL (≈ 24 µM) in series [2] (EP069, Table 1); 0.8 µg/mL (≈ 1.53 µM) in series [3] (EP071, Table 1); 3.13 µg/mL (≈ 6 µM) in series [4] (EK6, Table 1).
Compound `O=C(O)Cn1nnnc1SCC1=C(C(=O)O)N2C(=O)[C@@H](NC(=O)[C@H](NC(=O)c3csc4cc(O)c(O)cc4c3=O)c3ccc(O)cc3)[C@H]2SC1` [Example 10, 7β-[D-2-(6,7-Dihydroxy-4-oxo-4H-1-benzothiopyran-3-carboxamide)-2-(4-hydroxyphenyl)acetamide]-3-(1-carboxymethyl-5-tetrazolyl)thiomethyl-3-cephem-4-carboxylic acid] showed an LD50 in series [5] of more than 4000 mg/kg. The MIC in series [1] (EP067, Table 1) is 3.13 µg/mL (≈ 4.22 µM); in series [2] (EP069, Table 1), 3.13 µg/mL (≈ 4.22 µM); in series [3] (EP071, Table 1), 0.2 µg/mL (≈ 0.27 µM); in series [4] (EK6, Table 1), not above 0.012 µg/mL.

A word on the MIC: it is the smallest concentration in the dilution series that meets the test's criterion for growth inhibition. A low value points to greater potency. What is called LD50 is the dose at which mortality reaches 50%. A lower LD50 goes with a more toxic substance.
